Results from US9289446B2, “Myocardial perfusion imaging methods and compositions” (GILEAD SCIENCES, INC., priority 2002, dated 2016).

How the values were obtained:
[1] = test system: coronary blood flow velocity (CBFv); experiment: Example 1: open label study of CVT-3146 IV bolus on CBFv (Doppler flow wire) in patients undergoing coronary catheterization; assay type: in vivo, humans
Experimental: The purpose of this open label study was to determine the magnitude and duration of effect of CVT-3146 (10-500 μg) on CBFv in humans.
METHODS: Patients undergoing a clinically indicated coronary catheterization with no more than a 70% stenosis in any coronary artery and no more than a 50% stenosis of the study vessel had CBFv determined by Doppler flow wire. Study subject were selected after measuring baseline and peak CBFv after an intracoronary (IC) injection of 18 μg of Ado. Twenty-three patients, who were identified as meeting the study criteria of having a peak to baseline CBFv ratio of ≧2.5 in response to Adenosine, received a rapid (<10 sec) peripheral IV bolus of CVT-3146; Doppler signals were stable and interpretable over the time-course of the increase in CBFv in 17 patients.

[2] = test system: heart rate (HR) and blood pressure (BP); experiment: Example 5: heart rate, blood pressure and plasma catecholamines after i.v. bolus in awake rats (sympathoexcitation); assay type: in vivo
Experimental: The present study was carried out to determine whether CVT-3146, a selective A2A adenosine receptor agonist, causes sympathoexcitation.
CVT (0.31 μg/kg-50 μg/kg) was given as a rapid i.v. bolus to awake rats and heart rate (HR) and blood pressure (BP) were monitored. CVT-3146 caused an increase in BP and systolic pressure (SP) at lower doses while at higher doses there was a decrease in BP and SP. […] The increase in HR was evident at the lowest dose of CVT at which there was no appreciable decrease in BP. ZM241385 (30 μg/kg, N=5), an A2A receptor antagonist, attenuated the decrease in BP (CVT-3146: 14±3%, ZM: 1±1%) and the increase in HR (CVT: 27±3%, ZM: 18±3%) caused by CVT-3146. Pretreatment with metoprolol (MET, 1 mg/kg, n=5), a beta-blocker, attenuated the increase in HR (CVT: 27±3%, MET: 15±2%), but had no effect on hypotension caused by CVT-3146. In the presence of hexamethonium (HEX, 10 mg/kg, n=5), a ganglionic blocker, the tachycardia was prevented (CVT: 27±3%, HEX: −1±2%), but BP was further reduced (CVT: −11±2%, HEX: −49±5%).

[3] = Example 7: adverse effects and hemodynamic effects of CVT-3146 as pharmacologic stress agent in MPI protocol; assay type: in vivo, human
From the text: CVT-3146 is a selective A2A adenosine receptor agonist that produces coronary hyperemia and potentially less adverse effects due to its limited stimulation of receptor subtypes not involved with coronary vasodilation. This study evaluated the effectiveness of CVT-3146 as a pharmacologic stress agent.
36 subjects (27 men, 9 women; 67±10 years) were studied with two doses of CVT-3146 [400 mcg (n=18), 500 mcg (n=18)], administered as an IV bolus, as part of a pharmacologic stress myocardial perfusion imaging protocol.

[4] = test system: blood flow in coronary, mesenteric, hind limb and renal vascular beds; experiment: Example 8: vasodilator effects in different vascular beds (CBF, MBF, LBF, RBF) in awake dogs; assay type: in vivo; conditions: n=6, FIG. 18
Experimental: Example 8 employed a pharmaceutical composition consisting of an aqueous composition of 100 micrograms/mL CVT-3146 in 15% (w:v) propylene glycol and 100 mM phosphate buffer at pH 7 with 0.1% EDTA. The formulation was stored in type I glass vials at 5 mL per vial.
In this study the vasodilator effects of CVT-3146 were compared to those of ADO in different vascular beds in awake dogs. Dogs were chronically instrumented for measurements of the blood flow in coronary (CBF), mesenteric (MBF), hind limb (LBF), and renal (RBF) vascular beds, and hemodynamics.

[5] = Example 3: maximum tolerated dose and safety of single IV bolus CVT-3146 in healthy volunteers, supine and standing; assay type: in vivo; conditions: 30 μg/kg supine, 4 subjects per group
Experimental: This Example is a study performed to evaluate (1) the maximum tolerated dose of CVT-3146 and (2) the pharmacokinetic profile of CVT-3146 in healthy volunteers, after a single IV bolus dose.
The study was performed using thirty-six healthy, non-smoking male subjects between the ages of 18 and 59 and within 15% of ideal body weight.
The study was performed in phase 1, single center, double-blind, randomized, placebo-controlled, crossover, ascending dose study. Randomization was to CVT-3146 or placebo, in both supine and standing positions.
CVT-3146 was administered as an IV bolus (20, seconds) in ascending doses of […], 10, 20, and 30 μg/kg.
Subjects received either CVT-3146 of placebo on Day 1 supine, then crossover treatment on Day 2 supine. On Day 3, subjects received CVT-3146 or placebo standing, then crossover treatment on Day 4 standing.
Patient safety was monitored by ECG, laboratory assessments, and collection of vital signs and adverse events.
Pharmacodynamics: • The study evaluated the relationship of changes in heart rate to dose in both standing and supine positions and plasma concentration in the supine position. Results

[6] = test system: blood flow velocity in LCX, BA, FA and PA; experiment: Example 4: blood flow velocity (APV) in various vascular beds in the anesthetized dog; assay type: in vivo; conditions: 1.0 μg/kg iv bolus
From the text: CVT-3146 is a novel selective A2A adenosine receptor agonist being developed as a pharmacologic stressor for radionuclide myocardial perfusion imaging. […] The goal of this study was to determine the differential effects of CVT-3146 on blood flow velocity in various vascular beds.
The effects of CVT-3146 were quantified as the average peak blood flow velocity (APV) using intravascular Doppler transducer tipped catheter. Heart rate (HR) and systemic arterial blood pressure (BP) were also monitored.

[7] = 36 subjects, 400 or 500 mcg IV bolus

SMILES: CNC(=O)c1cnn(-c2nc(N)c3ncn([C@@H]4O[C@H](CO)[C@@H](O)[C@H]4O)c3n2)c1 [CVT-3146, (1-{9-[(4S,2R,3R,5R)-3,4-dihydroxy-5-(hydroxymethyl)oxolan-2-yl]-6-aminopurin-2-yl}pyrazol-4-yl)-N-methylcarboxamide]
- maximal decrease in systolic blood pressure (BP) ([1]; 500 μg (n=3)): 8.7±7.6
- maximal increase in heart rate (HR) ([1]; 500 μg (n=3)): 18.7±4.0
- adverse events (AEs) ([1]; 500 μg dose, 3 patients): No AEs were noted
- adverse events (AEs) ([1]; 10-500 μg IV bolus): infrequent and included nausea, flushing, and headache; these were mild and self-limited
- time at which increase in CBFv was near peak, post onset of bolus ([1]; IV bolus, humans): 30 to 40 s
- effect on HR over dose ([2]; 0.31 μg/kg-50 μg/kg rapid i.v. bolus): dose-dependent increase in HR
- decrease in BP caused by CVT-3146 ([2]; CVT-3146 alone (comparison with ZM241385), awake rats): 14±3%
- change in BP caused by CVT-3146 ([2]; CVT-3146 alone (comparison with hexamethonium)): −11±2%
- increase in HR caused by CVT-3146 ([2]; CVT-3146 alone, awake rats): 27±3%
- incidence of adverse effects (AE) [3, 7]: 72%
- patients with adverse effects (AE) [3, 7]: 26 pts
- tolerability ([3]; 400 and 500 mcg IV bolus): well-tolerated and has acceptable hemodynamic effects
- Diastolic BP, peak Absolute Change ([3]; 400 and 500 mcg, mean±S.D.): −5.4 ± 7.2 mmHg
- Diastolic BP, peak Relative Change ([3]; 400 and 500 mcg, mean±S.D.): −7.9% ± 10.5%
- Heart Rate, peak Absolute Change ([3]; 400 and 500 mcg, mean±S.D.): +21.9 ± 10.4 beats per min
- Heart Rate, peak Relative Change ([3]; 400 and 500 mcg, mean±S.D.): +36.7% + 21.0%
- Systolic BP, peak Absolute Change ([3]; 400 and 500 mcg, mean±S.D.): −5.9 ± 10.7 mmHg
- Systolic BP, peak Relative Change ([3]; 400 and 500 mcg, mean±S.D.): −4.1% ± 7.6%
- serious AE ([3]; both doses): One serious AE occurred, with exacerbation of a migraine headache
- share of AEs mild to moderate ([3]; both doses): 96%
- share of AEs resolved within 15 min without treatment ([3]; both doses): 91%
- time of peak hemodynamic effect, heart rate (HR) ([3]; both doses): ≤ 0.033 h
- time of peak hemodynamic effect, systolic blood pressure (BP) ([3]; both doses): 4 min
- deviation of BP from baseline ([3]; thirty min after CVT-3146): < 2%
- increase in hind limb blood flow (LBF) compared to ADO [4]: smaller increase in LBF than ADO
- Dizziness labeled as severe, number of subjects with AE [5]: 0
- Palpitation labeled as severe, number of subjects with AE [5]: 2
- Syncope labeled as severe, number of subjects with AE [5]: 0
- decrease in BP [6]: 12 mmHg
- time for effect on blood flow velocity to dissipate [6]: less than ten
- transient increase in HR [6]: 16 bpm
